Our source for the MIC values is patent US4698352A, “4-oxo-1,4-dihydronicotinic acid derivatives, salts thereof, and antibacterial agents containing the same” (Toyama Chemical Co., Ltd., priority 1982, dated 1987).

In brackets after ≈: the same amount, converted by molar mass. Read-outs that look alike come from different tables or passages of the source.

Common to all, as to test: Antibacterial activity (MIC), agar dilution
Common to all, as to assay type: cell-based
(In general: Agar dilution tests growth on a series of plates holding different concentrations.)

For one experiment, the system named is Ps. aeruginosa S-68. The settings on record: Pseudomonas aeruginosa. From the text: (§1) The amount of bacteria inoculated was 10^4 cells per plate (10^6 cells per ml).
In the next experiment the test system is Ent. cloacae IID977. The conditions noted are these: Enterobacter cloacae, IID977, 20 h.
Text: as §1

Another experiment deals with St. aureus FDA209P. The settings on record: Staphylococcus aureus, FDA209P, 20 h, St. aureus FDA209P; 10^6 cells per ml; 37° C., 20 hours; read-out: MIC.
Text: as §1

Another experiment concerns Ps. aeruginosa IFO3445. The settings on record: Pseudomonas aeruginosa; Ps. aeruginosa IFO3445; 10^6 cells per ml; 37° C., 20 hours; read-out: MIC.
Text: as §1

Another experiment has as its system Kl. pneumoniae Y-41. The settings on record: Klebsiella pneumoniae, Y41, 10^6 cells per ml, 37° C., 20 hours, read-out: MIC.
Text: as §1

In a further experiment the test system is E. coli NIHJ JC-2. The conditions noted are these: Escherichia coli, NIHJJC2, 20 h, E. coli NIHJ JC-2; 10^6 cells per ml; 37° C., 20 hours; read-out: MIC.
Text: as §1

The next experiment has as its system Aci. antitratus A-6. The conditions noted are these: 20 h, Aci. antitratus A-6; 10^6 cells per ml; 37° C., 20 hours; read-out: MIC.
Text: as §1

In another experiment the test system is Kl. pneumoniae Y-50. The conditions noted are these: Klebsiella pneumoniae, Y50, 20 h, 10^6 cells per ml, 37° C., read-out: MIC.
Text: as §1

Another experiment relates to Pro. morganii T-216. The settings on record: Morganella morganii, 37° C.
Text: as §1

The next experiment concerns E. coli TK-111. The settings on record: Escherichia coli, TK111, 20 h, E. coli TK-111; 10^6 cells per ml; 37° C., 20 hours; read-out: MIC.
Text: as §1

A further experiment concerns Pro. vulgaris GN3027. The conditions noted are these: Proteus vulgaris, GN3027, 20 h, Pro. vulgaris GN3027; 10^6 cells per ml; 37° C., 20 hours; read-out: MIC.
Text: as §1

A further experiment concerns Pro. mirabilis T-111. The conditions noted are these: Proteus mirabilis, 37° C.
Text: as §1

Another experiment has as its system St. aureus F-137*. The settings on record: Staphylococcus aureus, 20 h, St. aureus F-137, penicillinase-producing; 10^6 cells per ml; read-out: MIC.
Text: as §1
(§2) * Penicillinase-producing bacteria

Another experiment relates to Ps. aeruginosa GN3379*. The settings on record: Pseudomonas aeruginosa, 20 h; Ps. aeruginosa GN3379, penicillinase-producing; 10^6 cells per ml; read-out: MIC.
Text: as §1, §2

The subject of another experiment is E. coli TK-3*. The conditions noted are these: Escherichia coli, 20 h.
Text: as §1, §2

The subject of a further experiment is Kl. pneumoniae Y-4*. The conditions noted are these: Klebsiella pneumoniae, 20 h, Kl. pneumoniae Y-4, penicillinase-producing; 10^6 cells per ml; read-out: MIC.
Text: as §1, §2

The subject of the next experiment is Ps. aeruginosa GN918**. The conditions noted are these: Pseudomonas aeruginosa, Ps. aeruginosa GN918, cephalospolinase-producing, 10^6 cells per ml.
Text: as §1
(§3) ** Cephalospolinase-producing bacteria

For a further experiment, the system named is E. coli GN5482**. The conditions noted are these: Escherichia coli, 20 h; E. coli GN5482, cephalospolinase-producing; 10^6 cells per ml; read-out: MIC.
Text: as §1, §3

A further experiment deals with Pro. vulgaris GN76**. The settings on record: Proteus vulgaris.
Text: as §1, §3

Where [1] appears, read: S68, Ps. aeruginosa S-68, 10^6 cells per ml, 37° C., 20 hours, read-out: MIC.
The mark [2] stands for this setting: Ent. cloacae IID977, 10^6 cells per ml, 37° C., 20 hours, read-out: MIC.
[3] abbreviates: T216, 10^6 cells per ml, 20 hours, read-out: MIC.
The mark [4] stands for this setting: T111, 10^6 cells per ml, 20 hours, read-out: MIC.
Where [5] appears, read: E. coli TK-3, penicillinase-producing, 10^6 cells per ml, read-out: MIC.
[6] abbreviates: 20 h, Pro. vulgaris GN76, cephalospolinase-producing, 10^6 cells per ml, read-out: MIC.

The term MIC denotes the least concentration at which growth counts as inhibited. As for `O=C(O)c1cn(-c2ccc(O)cc2)c(-c2ccc(-n3cccn3)cc2)cc1=O`, the MIC worked out at 6.25 µg/mL (≈ 16.7 µM) in the experiment with Ps. aeruginosa S-68 (setting [1]); 0.2 µg/mL (≈ 0.536 µM) in the experiment with Ent. cloacae IID977 (setting [2]); 0.39 µg/mL (≈ 1.04 µM) with St. aureus FDA209P; 6.25 µg/mL (≈ 16.7 µM) in the experiment on Ps. aeruginosa IFO3445; 0.78 µg/mL (≈ 2.09 µM) in the experiment on Kl. pneumoniae Y-41; 0.1 µg/mL (≈ 0.268 µM) in the experiment with E. coli NIHJ JC-2. Moreover, the MIC in the experiment on Aci. antitratus A-6 was 0.78 µg/mL (≈ 2.09 µM); in the experiment on Kl. pneumoniae Y-50, 0.2 µg/mL (≈ 0.536 µM); with Pro. morganii T-216 (setting [3]), 1.56 µg/mL (≈ 4.18 µM); with E. coli TK-111 it was ≤ 0.05 µg/mL; in the experiment on Pro. vulgaris GN3027, 0.39 µg/mL (≈ 1.04 µM); with Pro. mirabilis T-111 (setting [4]), 3.13 µg/mL (≈ 8.38 µM). Further, the MIC in the experiment with St. aureus F-137* is 0.39 µg/mL (≈ 1.04 µM); in the experiment on Ps. aeruginosa GN3379* it was 6.25 µg/mL (≈ 16.7 µM); in the experiment with E. coli TK-3* (setting [5]) it was 0.2 µg/mL (≈ 0.536 µM); in the experiment with Kl. pneumoniae Y-4*, 0.78 µg/mL (≈ 2.09 µM); in the experiment with Ps. aeruginosa GN918** (20 h, read-out: MIC), 3.13 µg/mL (≈ 8.38 µM); with E. coli GN5482**, ≤ 0.05 µg/mL. For the same compound, the MIC with Pro. vulgaris GN76** (setting [6]) turned out to be 1.56 µg/mL (≈ 4.18 µM).

With `Cc1nc(-c2ccc(-c3cc(=O)c(C(=O)O)cn3-c3ccc(O)cc3C)cc2)cs1`, the MIC in the experiment on Ps. aeruginosa S-68 (setting [1]) was 3.13 µg/mL (≈ 7.48 µM); with Ent. cloacae IID977 (setting [2]), 0.39 µg/mL (≈ 0.932 µM); with St. aureus FDA209P, ≤ 0.05 µg/mL; with Ps. aeruginosa IFO3445, 3.13 µg/mL (≈ 7.48 µM); in the experiment with Kl. pneumoniae Y-41, 1.56 µg/mL (≈ 3.73 µM); in the experiment on E. coli NIHJ JC-2, 0.1 µg/mL (≈ 0.239 µM). Besides, the MIC is ≤ 0.05 µg/mL in the experiment on Aci. antitratus A-6; 0.2 µg/mL (≈ 0.478 µM) in the experiment on Kl. pneumoniae Y-50; 1.56 µg/mL (≈ 3.73 µM) against Pro. morganii T-216 (T216, 20 h, 10^6 cells per ml); ≤ 0.05 µg/mL in the experiment with E. coli TK-111; 0.39 µg/mL (≈ 0.932 µM) in the experiment with Pro. vulgaris GN3027; 0.78 µg/mL (≈ 1.86 µM) in the experiment with Pro. mirabilis T-111 (setting [4]). For the same compound, the MIC was ≤ 0.05 µg/mL with St. aureus F-137*; 6.25 µg/mL (≈ 14.9 µM) with Ps. aeruginosa GN3379*; 0.39 µg/mL (≈ 0.932 µM) in the experiment with E. coli TK-3* (setting [5]); 1.56 µg/mL (≈ 3.73 µM) with Kl. pneumoniae Y-4*; 0.39 µg/mL (≈ 0.932 µM) in the experiment on Ps. aeruginosa GN918** (20 h, read-out: MIC); ≤ 0.05 µg/mL in the experiment with E. coli GN5482**. Moreover, in the experiment with Pro. vulgaris GN76** (setting [6]), the MIC came to 0.39 µg/mL (≈ 0.932 µM).

Consider `CN1CCCc2cc(-c3cc(=O)c(C(=O)O)cn3-c3ccc(O)cc3)ccc21`, for which the MIC against Ps. aeruginosa S-68 (S68, 20 h) is 6.25 µg/mL (≈ 16.6 µM); with Ent. cloacae IID977, 1.56 µg/mL (≈ 4.14 µM); in the experiment on St. aureus FDA209P, 0.39 µg/mL (≈ 1.04 µM); with Ps. aeruginosa IFO3445 it was 12.5 µg/mL (≈ 33.2 µM); in the experiment on Kl. pneumoniae Y-41 it was 3.13 µg/mL (≈ 8.32 µM); in the experiment with E. coli NIHJ JC-2, 0.39 µg/mL (≈ 1.04 µM). Moreover, the MIC is 0.39 µg/mL (≈ 1.04 µM) with Aci. antitratus A-6; 1.56 µg/mL (≈ 4.14 µM) with Kl. pneumoniae Y-50; 3.13 µg/mL (≈ 8.32 µM) against Pro. morganii T-216 (T216, 20 h, 10^6 cells per ml); 0.2 µg/mL (≈ 0.531 µM) in the experiment on E. coli TK-111; 0.78 µg/mL (≈ 2.07 µM) in the experiment on Pro. vulgaris GN3027; 3.13 µg/mL (≈ 8.32 µM) against Pro. mirabilis T-111 (T111, 20 h, 10^6 cells per ml). The MIC in the experiment with St. aureus F-137* is 0.2 µg/mL (≈ 0.531 µM); with Ps. aeruginosa GN3379*, 12.5 µg/mL (≈ 33.2 µM); in the experiment on E. coli TK-3* it was 1.56 µg/mL (≈ 4.14 µM); with Kl. pneumoniae Y-4* it was 6.25 µg/mL (≈ 16.6 µM); in the experiment on Ps. aeruginosa GN918** (GN918, 20 h), 3.13 µg/mL (≈ 8.32 µM); in the experiment with E. coli GN5482**, ≤ 0.05 µg/mL. In the experiment on Pro. vulgaris GN76** (GN76, 20 h), this compound came in with an MIC of 1.56 µg/mL (≈ 4.14 µM).

For `CN1CCc2cc(-c3cc(=O)c(C(=O)O)cn3-c3ccc(O)cc3)ccc21`, the MIC in the experiment with Ps. aeruginosa S-68 (setting [1]) came out at 6.25 µg/mL (≈ 17.2 µM); in the experiment on Ent. cloacae IID977 (setting [2]), 0.78 µg/mL (≈ 2.15 µM); in the experiment on St. aureus FDA209P, 0.2 µg/mL (≈ 0.552 µM); in the experiment on Ps. aeruginosa IFO3445, 12.5 µg/mL (≈ 34.5 µM); in the experiment with Kl. pneumoniae Y-41 it was 1.56 µg/mL (≈ 4.3 µM); with E. coli NIHJ JC-2, 0.2 µg/mL (≈ 0.552 µM). The MIC in the experiment with Aci. antitratus A-6 was 0.39 µg/mL (≈ 1.08 µM); in the experiment on Kl. pneumoniae Y-50, 0.39 µg/mL (≈ 1.08 µM); in the experiment with Pro. morganii T-216 (setting [3]), 0.78 µg/mL (≈ 2.15 µM); in the experiment with E. coli TK-111, ≤ 0.05 µg/mL; in the experiment with Pro. vulgaris GN3027 it was 0.2 µg/mL (≈ 0.552 µM); with Pro. mirabilis T-111 (setting [4]), 3.13 µg/mL (≈ 8.64 µM). The MIC was 0.1 µg/mL (≈ 0.276 µM) in the experiment with St. aureus F-137*; 6.25 µg/mL (≈ 17.2 µM) in the experiment with Ps. aeruginosa GN3379*; 0.39 µg/mL (≈ 1.08 µM) with E. coli TK-3* (setting [5]); 1.56 µg/mL (≈ 4.3 µM) with Kl. pneumoniae Y-4*; 1.56 µg/mL (≈ 4.3 µM) against Ps. aeruginosa GN918** (GN918, 20 h); ≤ 0.05 µg/mL with E. coli GN5482**. For the same compound, the MIC with Pro. vulgaris GN76** (setting [6]) came out at 0.39 µg/mL (≈ 1.08 µM).
